Data as given in US20210062263A1, “A CLINICAL […]” (priority 2016, published 2021).

What was measured:
TNF-α = assay: Cutaneous TNF-α levels (ELISA) after wounding; type: in vivo, mice
Procedure: Frozen samples of wounded and unwounded skin were homogenized (Janke & Kunkel Ultraturrax T25 homogenizer, IKA Labortechnik, Staufen, Germany) in 1% v/v protease inhibitor (Calbiochem, San Diego, Calif.) and the homogenates were centrifuged at 4° C. to remove debris prior to assay.
Cutaneous levels of IL-6 and TNF-α were measured in skin samples using ELISAs according to the manufacturer's instructions (R&D Systems Inc, MN, USA). The sensitivity of the IL-6 ELISA was 5.97 pg/ml; the intra-assay variation was of 3.4% and the inter-assay variation was 4.1%. Mouse recombinant was used as a standard for the TNF-α assay; the sensitivity of the ELISA was 9.04 pg/ml; the intra-assay variation was of 12.8% and the inter-assay variation was 12.7%. The concentrations are expressed per mg of tissue (wet weight).

CD45+ cells = assay: Immunohistochemical analysis of leukocyte infiltration (CD45+ cells); type: in vivo, mice
Excerpt: CD45, also known as leukocyte common antigen (LCA), was used to detect infiltrating leukocytes as a marker of inflammation (Hermiston et al. (2003) Annul Rev Immunol 21:107-137). Five micron thick sections were cut and placed on Menzel-Glaser Polysine (Registered Trade Mark) slides (Thermo Scientific), air-dried and stored at room temperature. Slides were stained using an automated system (DAKO Autostainer Plus), at room temperature; sections were rehydrated and antigen retrieved with the Dako buffers citrate pH6.1. Slides were peroxidase-blocked in 3% v/v hydrogen peroxide (H2O2) in methanol for 10 mins. They were then blocked with CAS-Block (Invitrogen, CA, USA) for 10 minutes, and then incubated with primary antibody (CD45 biotinylated rat anti-mouse antibody, 1:200) for 20 min. Vectastain ABC kit (Vector Labs, Burlingame, Calif.) was subsequently applied for 30 minutes and further colorimetric detection was completed with diaminobenzidine (DAB) for 5 minutes. Sections were counterstained with haematoxylin and slides coverslipped under DePeX.
Leukocyte infiltration was assessed by calculating the average number of CD45+ cells in four random high-power fields (HPF) per tissue section from each group. Data presented reflect the mean total cell count per field from the wound area at days 3 and 5 post-wounding.

dorsal skin wound = assay: Macroscopic evaluation of dorsal skin wounds; type: in vivo, mice
Procedure: (§1) Implants were prepared by cutting medical grade Silastic (polydimethylsiloxane) tubing (1.5 mm inner diameter, 2.3 mm outer diameter, Aunet Pty Ltd, WA, Australia) to the desired length (1 cm long) and sealing one end with Multi-Purpose Sealant (Dow Corning RTV Sealant). After 24 hours each tube was packed with either crystalline testosterone (Sigma #T-1500) or left empty (vehicle implant). The open end was then sealed and implants were allowed to dry for at least 24 hours prior to surgical implantation. The implant size was considered to be the length of tubing containing testosterone. Prior to subcutaneous insertion, implants were sterilized in absolute ethanol for 10 minutes which also removed any androgen adhering to its external surface. Each testosterone or vehicle implant was inserted subcutaneously via a 5-mm nape incision in intact and castrated male mice three weeks before the wound healing experiments and the incision site was closed with 5/0 sutures.
Under anesthesia, the dorsal flanks of each 9 weeks old mouse (n=6/group) were carefully shaved and cleansed with 70% v/v ethanol. To create wounds, full-thickness, parasagittal linear incisions (1 cm long) were made through the skin and underlying the panniculus carnosus muscle on each flank and each wound was closed using two 5/0 silk sutures placed 3 mm from each end of the wound. […] Incisions were examined and assessed on days 3, 5, 7 and post-wounding.
Digital images of each dorsal skin wound were obtained with a standardized focal distance, aperture and exposure time using a Nikon D5000 camera (Nikon, Tokyo, Japan) immediately after the initial incision and at 3, 5, 7 and 14 days post-wounding. Wound areas were measured within the wound margins and the pixel areas were calculated using Adobe Photoshop CS5 (version 12.0, Adobe Systems Inc). The area of erythema was measured in all groups at 3 days and 5 days post-wounding and the area of the wound was measured in all groups at all time-points.

[1] = Reproductive organ weights (seminal vesicle, epididymis); type: in vivo, mice; conditions: castrated males, testosterone replacement
Excerpt: (§2) Six week-old male mice were castrated under anesthesia three weeks prior to the studies on wound healing. The testes were gently pushed through the inguinal canal into the abdominal cavity and exposed through a small (0.5 cm) ventral midline abdominal incision. Each testis was gently dissected from its epididymis and removed after ligation of the testicular vasculature. All incisions were closed using two interrupted 5/0 silk sutures (Johnson & Johnson Medical, NSW, Australia).
as §1, with “Each testosterone or vehicle implant was inserted subcutaneously via a 5-mm nape incision in intact and castrated male mice three weeks before the wound healing experiments and the incision site was closed with 5/0 sutures.” left out

[2] = Serum testosterone levels (RIA) in wounded male mice with testosterone implants; type: in vivo; conditions: for Serum Testosterone: Castrated + T males
Procedure: Six to nine week-old male Balb/cJASMU mice obtained from the Monash University Animal Services, Monash University, Clayton, Victoria, Australia, were housed prior to and during experiments under the following conditions: temperature range 21° C. to 24° C.; light cycle 12 hours light: 12 hours dark. All mice had access to food and water ad libitum.
as §2, §1
Under anesthesia, the dorsal flanks of each 9 weeks old mouse (n=6/group) were carefully shaved and cleansed with 70% v/v ethanol. To create wounds, full-thickness, parasagittal linear incisions (1 cm long) were made through the skin and underlying the panniculus carnosus muscle on each flank and each wound was closed using two 5/0 silk sutures placed 3 mm from each end of the wound. Post operatively, all animals received analgesia to minimize pain, were allowed to recover on a heated pad and then housed in groups of four animals per cage. Incisions were examined and assessed on days 3, 5, 7 and post-wounding.
Blood samples were collected between 10:00 and 10:30 am by cardiac puncture at different time points (0d, 3d, 5d, 7d or 14d) according to the experimental protocol. The samples were allowed to coagulate for 30 minutes then centrifuged at 10,000 g for 10 minutes to collect serum which was stored at −20° C. until assayed.
Serum testosterone levels were measured using a direct radioimmunoassay (RIA) testosterone kit (IM1119—Immunotech, Marseilles, France) according to the manufacturer's instructions, using I^125-labeled testosterone as a radioactive tracer. The antibody used in the immunoassay is highly specific for testosterone with extremely low cross-reactivity (<0.75%) for related molecules such as 5a-dihydrotestosterone or […]. The assay sensitivity for serum testosterone was 15.63 pg/ml and the intra-assay variation was 7.9%. All samples from one experiment were measured in the same assay.

C[C@]12CC[C@H]3[C@@H](CCC4=CC(=O)CC[C@@]43C)[C@@H]1CC[C@@H]2O [testosterone]
TNF-α skin levels (TNF-α; castrated males, testosterone replaced vs castrated males, days 5 and 7): significantly higher
TNF-α skin levels (TNF-α; castrated males, testosterone replaced, day 7 post-wounding): significantly increased
TNF-α skin levels (TNF-α; intact males given testosterone vs intact group, day 3 post-wounding): significantly increased
number of CD45+ cells (CD45+ cells; castrated group with testosterone replaced vs castrated group, days 3 and 5 post-wounding): significantly increased
leukocyte migration and infiltration to the wound site (summary) (CD45+ cells; male mice): increased migration and infiltration of leukocytes
wound area (dorsal skin wound; castrated animals treated with testosterone vs vehicle, days 3 and 5 post-wounding): increased wound area
scabs on wound surface (dorsal skin wound; castrated males, testosterone replaced): scabs were observed at both days 3 and 5
area of erythema (dorsal skin wound; castrated+T males, day 3 post-wounding): 0.42±0.03 cm2
size and weight of the epididymis [1]: 0.05±0.02
size and weight of the seminal vesicle [1]: 0.42±0.02
Serum Testosterone ([2]; 0 d): 5.7 ± 0.8 ng/mL
Serum Testosterone ([2]; 3 d): 5.4 ± 0.5 ng/mL
Serum Testosterone ([2]; 5 d): 5.9 ± 0.4 ng/mL
Serum Testosterone ([2]; 7 d): 5.2 ± 0.5 ng/mL
Serum Testosterone ([2]; 14 d): 4.5 ± 0.1 ng/mL
serum testosterone levels (in words) ([2]; castrated males, testosterone replacement): back to control levels
concentration at 0 d ([2]; male, Balb/cJASMU, mouse, serum, subcutaneous, 1 cm Silastic implant packed with crystalline testosterone, Intact + T males, 0 d): 5.3 ± 0.4 ng/mL
concentration at 3 d ([2]; male, Balb/cJASMU, mouse, serum, subcutaneous, 1 cm Silastic implant packed with crystalline testosterone, Intact + T males, 3 d): 5.9 ± 0.4 ng/mL
concentration at 5 d ([2]; male, Balb/cJASMU, mouse, serum, subcutaneous, 1 cm Silastic implant packed with crystalline testosterone, Intact + T males, 5 d): 7.8 ± 0.9 ng/mL
concentration at 7 d ([2]; male, Balb/cJASMU, mouse, serum, subcutaneous, 1 cm Silastic implant packed with crystalline testosterone, Intact + T males, 7 d): 6.7 ± 0.4 ng/mL
concentration at 14 d ([2]; male, Balb/cJASMU, mouse, serum, subcutaneous, 1 cm Silastic implant packed with crystalline testosterone, Intact + T males, 14 d): 6.3 ± 0.3 ng/mL
